Key:
VEGF [1] = test: human VEGF ELISA of culture solutions; type: cell-based; conditions: phellandrene 20 μM, 24 hours, vs DMSO, (A) of FIG. 3
Procedure: (§1) DMSO was used as a negative control group. The phellandrene-treated culture solutions were collected after 24 hours, and experiments were conducted using human VEGF ELISA Kit (Enzo Life Sciences, NY, USA), human IGF-1 ELISA kit (Enzo Life Sciences, NY, USA), and cAMP complete ELISA kit (Enzo Life Sciences, NY, USA), respectively, according to the manufacturers' protocol.

IGF-1 [2] = test: human IGF-1 ELISA of culture solutions; type: cell-based; conditions: phellandrene 20 μM, 24 hours, vs DMSO, (B) of FIG. 3
Procedure: as §1

cAMP = cAMP complete ELISA; type: cell-based, human; conditions: phellandrene 20 μM, 24 hours, vs DMSO, FIG. 4
Procedure: as §1

PKA Cα = test: Western blot analysis of PKA Cα; type: cell-based, human; conditions: phellandrene 20 μM, protein, (A) of FIG. 5
Procedure: (§2) Protein quantification was performed by Bradford assay.
(§3) 40 μg of the protein was electrophoresed on 10% SDS polyacrylamide gel and then transferred to nitrocellulose membranes. The protein was allowed to react with each of PKA Cα, β-catenin, β-actin, and GAPDH antibody (Cell Signaling Technology, Danvers, MA, USA). Each protein's signal was visualized with a chemiluminescent detection system (Amersham), and then the band's thickness was quantified using the Quantity One Analysis Software (Bio-Rad Laboratories).

β-catenin = test: Western blot analysis of β-catenin; type: cell-based, human; conditions: phellandrene 20 μM, protein, (B) of FIG. 5
Procedure: as §2, §3

LEF = test: RT-PCR mRNA expression of LEF; type: cell-based, human; conditions: phellandrene 20 μM, 24 hours, FIG. 6
Procedure: (§4) 24 hours after the treatment, the cells were collected and total RNA was extracted with Trizol Reagent (Gibco BRL, USA). The total RNA was quantified by absorbance measurement at 260 nm.
(§5) After isolation of RNA, cDNA was synthesized by performing reverse transcription using oligo dT primers and SuperScript reverse transcriptase (GIBCOBRL, Gaithersburg, MD, USA). PCR was performed using, as a template, cDNA obtained through reverse transcription and using, as primers, 5′ and 3′ flanking sequences of the gene's cDNA to be amplified. Here, required primers were obtained by making a request for synthesis with a company specializing in primer manufacturing (BIONEER CORPORATION, Korea) and used. To a mixture obtained by mixing of 5 μl of 10× reaction buffer [100 mM KCL, 20 mM Tris-HCl (pH 8.0), 2.5 mM MgCl2], 4 μl of 10 mM dNTP, and 1 μl each of 0.2 μM sense and antisense primers, were added 2 μl of the completed cDNA reaction mixture and 2.5 unit of Taq polymerase (Takara, Japan). Then, the volume was adjusted with 50 μl of distilled water, and PCR was performed using a PCR instrument. PCR conditions were set to 94° C. for 4 minutes, 94° C. (30 seconds), 30 cycles of [52° C. (30 seconds), 72° C. (45 seconds)], and 72° C. for 10 minutes.

Cyc-D = test: RT-PCR mRNA expression of Cyc-D; type: cell-based, human; conditions: phellandrene 20 μM, 24 hours, FIG. 6
Procedure: as §4, §5

VEGF [3] = test: RT-PCR mRNA expression of VEGF; type: cell-based, human; conditions: phellandrene 20 μM, 24 hours, FIG. 6
Procedure: as §4, §5

IGF-1 [4] = test: RT-PCR mRNA expression of IGF-1; type: cell-based, human; conditions: phellandrene 20 μM, 24 hours, FIG. 6
Procedure: as §4, §5

[5] = tested on: WEHI-3 murine leukemia cells; conditions: in vitro, Lin et al. 2015; cited from earlier work
[6] = tested on: neutrophil migration and mast cell stabilization; conditions: Siqueira et al. 2016; cited from earlier work
[7] = tested on: human hair dermal papilla cells; test: MTT assay: cell viability and proliferation in human hair dermal papilla cells; conditions: FIG. 2
Procedure: Human hair dermal papilla cells were purchased from PromoCell GmbH (Heidelberg, Germany). The human hair dermal papilla cells were cultured in an incubator at 37° C., 5% CO2 using HFDPC medium (PromoCell, Germany) with fetal bovine serum (FBS) and Dulbecco's modified Eagle's medium (DMEM; Gibco BRL, Gaithersburg, MD, USA). Due to the nature of the cells, cells at passages 2 to 5 were used for all experiments.
The human hair dermal papilla cells were dispensed into 24-well plates to 1×10^5 cells/well, and then cultured for 24 hours in an incubator at 37° C., 5% CO2 so that the cells are stabilized. Treatment with samples at respective concentrations (0, 10, 20, 50, 100, 200, 400 μg/ml) was performed and culture was performed for 24 hours. Then, treatment with 100 ul of 3-(4,5-dimethylthiazol-2-yl)-2,5-diphenyltetrazolium bromide (MTT; Sigma Aldrich, St. Louis, USA) reagent at a concentration of 200 mg/ml was performed and culture was performed again for 4 hours. After removing the medium, the precipitate (formazan) was dissolved in DMSO and the absorbance was measured at a wavelength of 540 nm. A proliferation rate thereof was evaluated based on the absorbance of a control group containing only DMSO.
The group containing only DMSO was set as a control group. […] Then, culture was performed for 24 hours, and cell viability was measured through an MTT assay.

## phellandrene
VEGF [1]
  increase in concentration of VEGF: 27%
IGF-1 [2]
  increase in concentration of IGF-1: 18%
cAMP
  increase in cAMP concentration: 30%
PKA Cα
  increase in expression of PKA Cα: 42%
β-catenin
  increase in expression of β-catenin in the cell nucleus: 30%
LEF
  increase in mRNA expression of LEF: 348%
Cyc-D
  increase in mRNA expression of Cyc-D: 250%
VEGF [3]
  increase in mRNA expression of VEGF: 247%
IGF-1 [4]
  increase in mRNA expression of IGF: 217%
[5]
  known physiological function: apoptosis in leukemia cells: induce apoptosis in leukemia cells
[6]
  known physiological function: anti-inflammatory: serve as an anti-inflammatory agent
[7]; phellandrene 10 μM
  proliferation rate increase: 10.8%
[7]; phellandrene 20 μM
  proliferation rate increase: 24%
[7]; phellandrene 50 μM
  proliferation rate increase: 18%
